Source: US20220363686A1 (AiCuris GmbH & Co. KG, priority 2018, published 2022)

Columns and labels:
[1] = Cell viability assay (AlamarBlue); details: human, HepAD38 cells
HBV = test: Determination of HBV DNA from the supernatants of HepAD38 cells (anti-HBV activity); format: cell-based, hepatitis B virus; details: Hepatitis B virus, HePAD38, 144 h, HBV DNA in HepAD38 supernatant, day 6, qPCR; read-out: Cell Activity
Protocol: The anti-HBV activity was analysed in the stable transfected cell line HepAD38, which has been described to secrete high levels of HBV virion particles (Ladner et al., 1997). In brief, HepAD38 cells were cultured at 37° C. at 5% CO2 and 95% humidity in 200 μl maintenance medium, which was Dulbecco's modified Eagle's medium/Nutrient Mixture F-12 (Gibco, Karlsruhe), 10% fetal bovine serum (PAN Biotech Aidenbach) supplemented with 50 μg/ml penicillin/streptomycin (Gibco, Karlsruhe), 2 mM L-glutamine (PAN Biotech, Aidenbach), 400 μg/ml G418 (AppliChem, Darmstadt) and 0.3 μg/ml tetracycline. Cells were subcultured once a week in a 1:5 ratio, but were usually not passaged more than ten times. For the assay 60,000 cells were seeded in maintenance medium without any tetracycline into each well of a 96-well plate and treated with serial half-log dilutions of test compound. To minimize edge effects the outer 36 wells of the plate were not used but were filled with assay medium. On each assay plate six wells for the virus control (untreated HepAD38 cells) and six wells for the cell control (HepAD38 cells treated with 0.3 μg/ml tetracycline) were allocated, respectively. In addition, one plate set with reference inhibitors like BAY 41-4109, entecavir, and lamivudine instead of screening compounds were prepared in each experiment. In general, experiments were performed thrice in triplicates. At day 6 HBV DNA from 100 μl filtrated cell culture supernatant (AcroPrep Advance 96 Filter Plate, […] Supor membran, PALL GmbH, Dreieich) was automatically purified on the MagNa Pure LC instrument using the MagNA Pure 96 DNA and Viral NA Small Volume Kit (Roche Diagnostics, Mannheim) according to the instructions of the manufacturer. EC50 values were calculated from relative copy numbers of HBV DNA In brief, 5 μl of the 100 μl eluate containing HBV DNA were subjected to PCR LC480 Probes Master Kit (Roche) together with 1 μM antisense primer […], 0.5 μM sense primer […], 0.3 μM hybprobes […]-FL and LC640-[…]-PH (TIBMolBiol, Berlin) to a final volume of 12.5 μl. The PCR was performed on the Light Cycler 480 real time system (Roche Diagnostics, Mannheim) using the following protocol: Pre-incubation for 1 min at 95° C., amplification: 40 cycles×(10 sec at 95° C., 50 sec at 60° C., 1 sec at 70° C.), cooling for 10 sec at 40° C. Viral load was quantitated against known standards using HBV plasmid DNA of pCH-9/3091 (Nassal et al., 1990, Cell 63: 1357-1363) and the LightCycler 480 SW 1.5 software (Roche Diagnostics, Mannheim) and ECso values were calculated using non-linear regression with GraphPad Prism 6 (GraphPad Software Inc., La Jolla, USA).

[2] = target: HBV core protein (C-terminal truncated core protein containing 149 amino acids of the N-terminal assembly domain) (UniProt P03146); test: Biochemical capsid assembly assay (fluorescence quenching); parameters: rows headed: Assembly Activity; other: BODIPY-FL labelled core protein, assembly started with NaCl, read after 6 min; details: read-out: Assembly Activity; BODIPY-FL labelled core protein, assembly started with NaCl, read after 6 min
Protocol: The screening for assembly effector activity was done based on a fluorescence quenching assay published by Zotnick et al. (2007). The C-terminal truncated core protein containing 149 amino acids of the N-terminal assembly domain fused to a unique cysteine residue at position 150 and was expressed in E. coli using the pET expression system (Merck Chemicals, Darmstadt). Purification of core dimer protein was performed using a sequence of size exclusion chromatography steps. In brief, the cell pellet from 1 L BL21 (DE3) Rosetta2 culture expressing the coding sequence of core protein cloned NdeI/XhoI into expression plasmid pET21b was treated for 1 h on ice with a native lysis buffer (Qproteome Bacterial Protein Prep Kit; Qiagen, Hilden). After a centrifugation step the supernatant was precipitated during 2 h stirring on ice with 0.23 g/ml of solid ammonium sulfate. Following further centrifugation the resulting pellet was resolved in buffer A (100 mM Tris, pH 7.5; 100 mM NaCl; 2 mM DTT) and was subsequently loaded onto a buffer A equilibrated CaptoCore 700 column (GE HealthCare, Frankfurt). The column flow through containing the assembled HBV capsid was dialyzed against buffer N (50 mM NaHCO3 pH 9.6; 5 mM DTT) before urea was added to a final concentration of 3M to dissociate the capsid into core dimers for 1.5 h on ice. The protein solution was then loaded onto a IL Sephacryl S300 column. After elution with buffer N core dimer containing fractions were identified by SDS-PAGE and subsequently pooled and dialyzed against 50 mM HEPES pH 7.5; 5 mM DTT. To improve the assembly capacity of the purified core dimers a second round of assembly and disassembly starting with the addition of 5 M NaCl and including the size exclusion chromatography steps described above was performed. From the last chromatography step core dimer containing fractions were pooled and stored in aliquots at concentrations between 1.5 to 2.0 mg/ml at −80° C.
Immediately before labelling the core protein was reduced by adding freshly prepared DTT in a final concentration of 20 mM. After 40 min incubation on ice storage buffer and DTT was removed using a Sephadex G-25 column (GE HealthCare, Frankfurt) and 50 mM HEPES, pH 7.5. For labelling 1.6 mg/ml core protein was incubated at 4° C. and darkness overnight with BODIPY-FL maleimide (Invitrogen, Karlsruhe) in a final concentration of 1 mM. After labelling the free dye was removed by an additional desalting step using a Sephadex G-25 column. Labelled core dimers were stored in aliquots at 4° C. In the dimeric state the fluorescence signal of the labelled core protein is high and is quenched during the assembly of the core dimers to high molecular capsid structures. The screening assay was performed in black 384 well microtiter plates in a total assay volume of 10 μl using 50 mM HEPES pH 7.5 and 1.0 to 2.0 μM labelled core protein. Each screening compound was added in 8 different concentrations using a 0.5 log-unit serial dilution starting at a final concentration of 100 μM, 31.6 μM or 10 μM, In any case the DMSO concentration over the entire microtiter plate was 0.5%. The assembly reaction was started by the injection of NaCl to a final concentration of […] which induces the assembly process to approximately 25% of the maximal quenched signal. 6 min after starting the reaction the fluorescence signal was measured using a Clariostar plate reader (BMG Labtech, Ortenberg) with an excitation of 477 nm and an emission of 525 nm. As 100% and 0% assembly control HEPES buffer containing 2.5 M and 0 M NaCl was used. Experiments were performed thrice in triplicates. EC50 values were calculated by non-linear regression analysis using the Graph Pad Prism 6 software (GraphPad Software, La Jolla, USA).

HBV core protein (C-terminal truncated core protein containing 149 amino acids of the N-terminal assembly domain), sequence (P03146 whole entry, the tested form may be a part): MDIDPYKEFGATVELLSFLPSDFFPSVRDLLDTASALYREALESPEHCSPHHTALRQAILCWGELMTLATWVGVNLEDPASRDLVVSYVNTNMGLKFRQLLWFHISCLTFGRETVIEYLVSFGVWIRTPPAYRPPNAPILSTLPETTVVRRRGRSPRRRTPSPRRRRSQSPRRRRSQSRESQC

| Structure (SMILES) | CC50 at 6 days [1] | EC50 (HBV) | IC50 [2] |
| --- | --- | --- | --- |
| CN(C(=O)c1cnn2c1CN(C(=O)c1cc3c(Cl)cc(F)cc3[nH]1)CC2)C1(COC(F)F)CC1 [Example 25, 5-(4-chloro-6-fluoro-1H-indole-2-carbonyl)-N-{1-[(difluoromethoxy)methyl]cyclopropyl}-N-methyl-4H,5H,6H,7H-pyrazolo[1,5-a]pyrazine-3-carboxamide] | > 10 µM | < 1 µM | < 5 µM |
| NS(=O)(=O)c1cnn2c1CN(C(=O)c1cc3ccccc3[nH]1)CC2 [Example 26, 5-(1H-indole-2-carbonyl)-4H,5H,6H,7H-pyrazolo[1,5-a]pyrazine-3-sulfonamide] | > 10 µM | < 1 µM | < 5 µM |
| O=C(c1cc2ccccc2[nH]1)N1CCn2ncc(S(=O)(=O)NCC3(O)CCC3)c2C1 [Example 27, N-[(1-hydroxycyclobutyl)methyl]-5-(1H-indole-2-carbonyl)-4H,5H,6H,7H-pyrazolo[1,5-a]pyrazine-3-sulfonamide] | > 10 µM | 1 to 10 µM | 5 to 10 µM |
| CC(NS(=O)(=O)c1cnn2c1CN(C(=O)c1cc3ccccc3[nH]1)CC2)C(F)(F)F (stereo not drawn) [Example 28, 5-(1H-indole-2-carbonyl)-N-(1,1,1-trifluoropropan-2-yl)-4H,5H,6H,7H-pyrazolo[1,5-a]pyrazine-3-sulfonamide] | > 10 µM | 1 to 10 µM | < 5 µM |
| O=C(c1cc2ccccc2[nH]1)N1CCn2ncc(S(=O)(=O)NCCO)c2C1 [Example 29, N-(2-hydroxyethyl)-5-(1H-indole-2-carbonyl)-4H,5H,6H,7H-pyrazolo[1,5-a]pyrazine-3-sulfonamide] | > 10 µM | < 1 µM | < 5 µM |
| O=C(c1cc2ccccc2[nH]1)N1CCn2ncc(S(=O)(=O)NC3CCOC3)c2C1 (stereo not drawn) [Example 30, 5-(1H-indole-2-carbonyl)-N-(oxolan-3-yl)-4H,5H,6H,7H-pyrazolo[1,5-a]pyrazine-3-sulfonamide] | > 10 µM | < 1 µM | < 5 µM |
| CN(CCO)S(=O)(=O)c1cnn2c1CN(C(=O)c1cc3ccccc3[nH]1)CC2 [Example 31, N-(2-hydroxyethyl)-5-(1H-indole-2-carbonyl)-N-methyl-4H,5H,6H,7H-pyrazolo[1,5-a]pyrazine-3-sulfonamide] | > 10 µM | < 1 µM | < 5 µM |
| COCC1(N(C)S(=O)(=O)c2cnn3c2CN(C(=O)c2cc4ccccc4[nH]2)CC3)CC1 [Example 32, 5-(1H-indole-2-carbonyl)-N-[1-(methoxymethyl)cyclopropyl]-N-methyl-4H,5H,6H,7H-pyrazolo[1,5-a]pyrazine-3-sulfonamide] | > 10 µM | < 1 µM | < 5 µM |
| O=C(c1cc2ccccc2[nH]1)N1CCn2ncc(S(=O)(=O)NCC3CCOC3)c2C1 (stereo not drawn) [Example 33, 5-(1H-indole-2-carbonyl)-N-[(oxolan-3-yl)methyl]-4H,5H,6H,7H-pyrazolo[1,5-a]pyrazine-3-sulfonamide] | > 10 µM | 1 to 10 µM | 5 to 10 µM |
| O=C(c1cc2ccccc2[nH]1)N1CCn2ncc(S(=O)(=O)N3CCC(O)CC3)c2C1 [Example 35, 1-{[5-(1H-indole-2-carbonyl)-4H,5H,6H,7H-pyrazolo[1,5-a]pyrazin-3-yl]sulfonyl}piperidin-4-ol] | > 10 µM | < 1 µM | < 5 µM |
| CN1CCN(S(=O)(=O)c2cnn3c2CN(C(=O)c2cc4ccccc4[nH]2)CC3)CC1 [Example 36, 2-{3-[(4-methylpiperazin-1-yl)sulfonyl]-4H,5H,6H,7H-pyrazolo[1,5-a]pyrazine-5-carbonyl}-1H-indole] | > 10 µM | < 1 µM | 5 to 10 µM |
| CC(C)NS(=O)(=O)c1cnn2c1CN(C(=O)c1cc3ccccc3[nH]1)CC2 [Example 37, 5-(1H-indole-2-carbonyl)-N-(propan-2-yl)-4H,5H,6H,7H-pyrazolo[1,5-a]pyrazine-3-sulfonamide] | > 10 µM | < 1 µM | < 5 µM |
| O=C(c1cc2ccccc2[nH]1)N1CCn2ncc(S(=O)(=O)N3CCOCC3)c2C1 [Example 38, 2-[3-(morpholine-4-sulfonyl)-4H,5H,6H,7H-pyrazolo[1,5-a]pyrazine-5-carbonyl]-1H-indole] | > 10 µM | < 1 µM | < 5 µM |
| O=C(c1cc2ccccc2[nH]1)N1CCn2ncc(S(=O)(=O)N3CCCC3)c2C1 [Example 39, 2-[3-(pyrrolidine-1-sulfonyl)-4H,5H,6H,7H-pyrazolo[1,5-a]pyrazine-5-carbonyl]-1H-indole] | > 10 µM | < 1 µM | < 5 µM |
| CN(C)S(=O)(=O)c1cnn2c1CN(C(=O)c1cc3ccccc3[nH]1)CC2 [Example 40, 5-(1H-indole-2-carbonyl)-N,N-dimethyl-4H,5H,6H,7H-pyrazolo[1,5-a]pyrazine-3-sulfonamide] | > 10 µM | < 1 µM | < 5 µM |
| CNS(=O)(=O)c1cnn2c1CN(C(=O)c1cc3ccccc3[nH]1)CC2 [Example 41, 5-(1H-indole-2-carbonyl)-N-methyl-4H,5H,6H,7H-pyrazolo[1,5-a]pyrazine-3-sulfonamide] | > 10 µM | < 1 µM | < 5 µM |
